According to PubChem BioAssay AID1996:
≈ marks a conversion by molar mass, not a printed value.

Conditions: buffer; pH 7.4; 200.0 µM

Row | Compound | solubility kinetic [µg/mL]
1 | CC(C)(C)c1cc(NC(=O)Nc2ccc(Cl)cc2Cl)no1 | < 0.2
2 | CN(c1ccccc1)S(=O)(=O)c1ccc2[nH]c(=O)oc2c1 | > 45.6
3 | CC(C)CN1C(=O)NC2(CCCc3ccccc32)C1=O (stereo unspecified) | > 40.9
4 | CCSc1nnc(NC(=O)c2c(C)noc2C)s1 | > 42.7
5 | NC(=O)COC(=O)CSc1ccc2ccccc2c1 | > 41.3
6 | CCOC(=O)c1sc(Nc2nc(C)cc(OC)n2)nc1C | 5.1 (≈ 16.5 µM)
7 | CCOc1ccc(Br)cc1C(=S)N1CCCC1 | 6.2 (≈ 19.7 µM)
8 | Cc1ccccc1/C=C\c1nc2ccccc2c(=O)[nH]1 | 1.2 (≈ 4.57 µM)
9 | CN(C)c1ccc(C(=O)NC2(N3CCC3=O)CCCC2)cc1 | > 45.2
10 | O=C(COC(=O)c1ccc[nH]c1=O)NC1CC1 | 32.3 (≈ 137 µM)
11 | COc1ccc(CNC(=S)Nc2ccccc2)cc1 | > 40.9
12 | Cc1ccc(O)c(NC(=O)c2cc([N+](=O)[O-])ccc2Cl)c1 | 8.5 (≈ 27.7 µM)
13 | O=C(CNC(=O)c1ccc2ccccc2c1)NC1CCCCC1 | 13 (≈ 41.9 µM)
14 | C1CCCCCC(NCCN2CCNCC2)CCCCC1 | > 44.3
15 | O=C1C2CCCN2C(=O)N1CCCN1CCN(c2ccc([N+](=O)[O-])cc2)CC1 (stereo unspecified) | 49.4 (≈ 128 µM)
16 | O=C(Nc1ccc(N2CCCC2)cc1)c1ccc(Cl)cc1Cl | 0.5 (≈ 1.49 µM)
17 | Cn1c(=O)oc2cc(S(=O)(=O)NCc3cccnc3)ccc21 | 30.5 (≈ 95.5 µM)
18 | CCCOc1ccc(C(=O)Nc2cccnc2)cc1 | 36 (≈ 140 µM)
19 | O=C(NCCc1ccc2c(c1)OCCO2)c1ccccn1 | > 42.6
20 | CN(Cc1ccccc1)C(=S)NC(=O)c1ccccc1 | 7.5 (≈ 26.4 µM)
21 | CC(C)Cc1cc(C(=O)Nc2ccccc2)c2ccccc2n1 | 3.9 (≈ 12.8 µM)
22 | C=CCNC(=S)N1CCC(C(=O)c2ccc(F)cc2)CC1 | > 46
23 | COc1ccccc1/C=C/C(=O)OCC(=O)NC(=O)NC1CCCC1 | 13.8 (≈ 39.8 µM)
24 | Cc1noc(NS(=O)(=O)c2ccc(NC(=O)c3ccc(F)cc3)cc2)c1C | > 58.4
25 | N#CCCN(C(=O)COC(=O)c1ccc2c(c1)OCCO2)c1ccccc1 | 52 (≈ 142 µM)

Row | Compound | solubility kinetic [µg/mL]
26 | O=C(O)c1ccccc1Nc1ccnc(C(F)(F)F)c1 | > 42.3
27 | Cc1ccc(NC(=O)NCCCN2CCCC2=O)c(C)c1 | > 43.4
28 | CCCCN1C(=O)c2ccc(C(=O)N(C)CC(=O)Nc3ccc(OCC)c(OCC)c3)cc2C1=O | 17.5 (≈ 36.3 µM)
29 | COc1ccc(C(C)(C)C)cc1NC(=O)C1=CC=CN2CCS(=O)(=O)N=C12 | 1.7 (≈ 4.36 µM)
30 | CCCc1cc(C(=O)NC(C)C2CCCO2)cs1 (stereo unspecified) | > 40.1
31 | COc1ccccc1C(=O)NC(=O)Nc1cccc(Cl)c1 | < 0.3
32 | COc1ccc(C(=O)OCC(=O)NC(=O)NC2CCCC2)c(O)c1 | 4.1 (≈ 12.2 µM)
33 | CC1CCCCN1C(=O)c1cc(-c2ccc3c(c2)OCO3)on1 (stereo unspecified) | 39.9 (≈ 127 µM)
34 | CCOc1ccc(N=Cc2c(O)n(-c3ccc(C)c(C)c3)c(=O)[nH]c2=O)cc1 | 2.9 (≈ 7.64 µM)
35 | O=C(COC(=O)C1C2CC3OC(=O)C1C3C2)Nc1ccccc1 (stereo unspecified) | > 47.3
36 | CCOP(=O)(c1ccc(N(C)C)cc1)C(O)c1ccncc1 (stereo unspecified) | > 48
37 | CC(CCc1ccccc1)NC(=O)C1CC1 (stereo unspecified) | > 32.6
38 | N[C@@H](Cc1c[nH]c2ccc(O)cc12)C(=O)O | 32.6 (≈ 148 µM)
39 | Cc1cccc(NC(=O)Cn2cc(C(=O)C3CC3)c3ccccc32)c1 | < 0.4
40 | COc1ccc(Nc2oc(-c3ccc(OC)cc3)nc2C#N)cc1 | 0.7 (≈ 2.18 µM)
41 | Oc1ccc(Cl)cc1C=Nc1ccc(Br)cc1 | 21.4 (≈ 68.9 µM)
42 | COc1ccc(OC)c(-c2csc(-c3cccs3)n2)c1 | < 0.6
43 | C[N+](C)(C)CCOc1ccc([N+](=O)[O-])cc1.[Br-] | > 45.8
44 | CN(CC(=O)N1CCCCC1)S(=O)(=O)c1ccc(Cl)cc1 | 47.5 (≈ 144 µM)
45 | O=C(NCCc1ccccc1)C(=O)NCC1CCNCC1 | > 43.4
46 | Nc1c(C(=O)N2CCOCC2)oc2ccccc12 | > 36.9
47 | O=C(OCC(=O)c1ccc(Cl)cc1Cl)c1cnccn1 | > 46.7
48 | CC12CC3CC(C)(C1)CC(NCc1ccncc1)(C3)C2.Cl | > 46
49 | Cc1ccccc1-n1nc2c(c1NC(=O)CC(C)C)CS(=O)C2 (stereo unspecified) | > 49.7
50 | CCOc1ccc(CC(=O)Nc2nccs2)cc1 | 7.7 (≈ 29.4 µM)

Row | Compound | solubility kinetic [µg/mL]
51 | CCOC(=O)C1=C(C)NC(=O)CC1c1cc2c(cc1[N+](=O)[O-])OCO2 (stereo unspecified) | 3.3 (≈ 9.47 µM)
52 | COc1ccccc1NC(=O)CNC(c1ccccc1)c1ccccc1 | 1.2 (≈ 3.46 µM)
53 | Cc1cc(C)cc(NC(=O)C2CCCN2C(=O)NC2CCCCC2)c1 (stereo unspecified) | 0.7 (≈ 2.04 µM)
54 | O=C(COc1ccc(Cl)cc1Cl)c1ccc[nH]1 | 34.9 (≈ 129 µM)
55 | Cc1ccc2c(CN3CCC(C)CC3)cc(=O)oc2c1C | 3.9 (≈ 13.7 µM)
56 | CCc1ccc2c(CN3CCN(S(=O)(=O)c4ccccc4F)CC3)cc(=O)oc2c1 | 3.4 (≈ 7.9 µM)
57 | COC(=O)c1cc(C)nc(Sc2ccccc2NC(C)=O)n1 | 41.6 (≈ 131 µM)
58 | CSc1cccc(NC(=S)NCCCO)c1 | 37.3 (≈ 145 µM)
59 | CN(CCC#N)S(=O)(=O)c1cc2c3c(c1)CCN3C(=O)CC2 | > 47.9
60 | Cc1nc(SCC(=O)N2CCOCC2)c2c(=O)n(C)c(=O)n(CC(C)C)c2n1 | 47.8 (≈ 117 µM)
61 | CCOc1ccc(NC(=O)/C(C=Nc2ccccc2)=C(\C)O)cc1 | 1 (≈ 3.08 µM)
62 | CC(C)NCC(O)COc1cccc2[nH]ccc12 (stereo unspecified) | > 37.2
63 | CCc1nc(Nc2cccc(OC)c2)c2oc3ccccc3c2n1.Cl | 0.5
64 | Cc1ccc(OCc2ccc(C(=O)NN)o2)c([N+](=O)[O-])c1 | > 43.7
65 | C=CCSc1ncc(CO)n1Cc1ccccc1 | 37.9 (≈ 146 µM)
66 | O=C(CCS(=O)(=O)c1ccccc1)NCc1ccccc1 | > 45.5
67 | COC(=O)[C@H](c1ccccc1Cl)N1CCc2sccc2C1 | 15.1 (≈ 46.9 µM)
68 | CC(C)C(Nc1ccc(C(F)(F)F)cc1[N+](=O)[O-])C(=O)O (stereo unspecified) | > 45.9
69 | CC(=O)c1sc(NCc2ccc(C)cc2)nc1C | 38.6 (≈ 148 µM)
70 | Fc1cccc(NC(=S)N2CCN(c3ccccn3)CC2)c1 | 5.6 (≈ 17.7 µM)
71 | Cc1ccc(S(=O)(=O)NC(CC(=O)O)c2ccc(F)cc2)cc1 (stereo unspecified) | 34.8 (≈ 103 µM)
72 | CCCCOc1ccc(C(=O)NNC(=O)c2cnccn2)cc1OC | > 51.7
73 | O=C(Cc1ccccc1[N+](=O)[O-])OCC(=O)c1ccccc1Br | 39.1 (≈ 103 µM)
74 | COc1cc(C(=O)NCc2ccc3[nH]c(C)cc3c2)cc(OC)c1OC | 12.5 (≈ 35.3 µM)
75 | O=C(c1ncc[nH]1)c1cccs1 | > 26.7

Row | Compound | solubility kinetic [µg/mL]
76 | O=C(Nc1nnc(-c2ccncc2)o1)c1ccccc1 | > 39.9
77 | CCC(CC)C(=O)c1c[nH]c(C(=O)NCc2ccncc2)c1 | 44.2 (≈ 148 µM)
78 | COc1ccc(S(=O)(=O)N2CCSCC2)cc1C(N)=O | 25 (≈ 79 µM)
79 | CN(C(=O)CN1C(=O)c2ccc([N+](=O)[O-])cc2C1=O)C1CCCCC1 | > 51.8
80 | Cc1cccc(OCCn2ccnc2)c1C | 22.7 (≈ 105 µM)
81 | CCN(C(=O)Nc1cccc(Cl)c1)c1ccccc1 | 18.6 (≈ 67.7 µM)
82 | Cn1c(=O)c2c(ncn2CC(=O)OCC(=O)Nc2ccc(F)cc2Cl)n(C)c1=O | > 63.6
83 | O=C1Nc2ccccc2C1=Nc1ccc(Br)cc1 | 6.7 (≈ 22.2 µM)
84 | O=C(Nc1ccccc1Cl)OCc1cncs1 | 35.1 (≈ 131 µM)
85 | CC(=O)Oc1ccc2c(=O)oc(-c3ccccc3C)nc2c1 | 8.4 (≈ 28.4 µM)
86 | N#Cc1cnc(NCc2ccc(Cl)cc2Cl)nc1 | 0.5 (≈ 1.79 µM)
87 | O=C(CNC(=O)c1ccccc1F)NC1=NCCS1 | > 42.2
88 | Cc1cccc(NC(=O)CCN2CC(C)CC(C)C2)c1.Cl (stereo unspecified) | > 46.6
89 | CCOc1ccc2[nH]cc(-c3csc(N)n3)c2c1 | 20.5 (≈ 79 µM)
90 | COc1ccc(C(=O)Nc2ccccc2C(=O)Nc2ccccn2)cc1 | < 0.2
91 | COc1ccccc1N1CCN(CC(=O)Nc2nccs2)CC1 | > 49.9
92 | COc1cccc(Oc2ccc(C(F)(F)F)cc2NC(=O)C2=COCCO2)c1 | 1.5 (≈ 3.79 µM)
93 | Cc1ccsc1C1C(C#N)=C(N)OC2=C1C(=O)CCC2 (stereo unspecified) | 41.9 (≈ 146 µM)
94 | Cc1noc(C)c1C(=O)OCC(=O)Nc1ncc(Cl)c(C)c1Cl | > 53.7
95 | Cc1ccc(S(=O)(=O)/N=C2/NC(=O)/C(=C\c3ccccc3)S2)cc1 | > 53.8
96 | NC1=NC2(CCCC2)N=C(Nc2ccccc2)N1 | > 36.5
97 | Cc1ccc(NC2CC(C)NC(=S)N2)cc1 (stereo unspecified) | 33.1 (≈ 141 µM)
98 | O=C(Nc1ccc(F)c(Cl)c1)c1nsc(Cl)c1Cl | 0.7 (≈ 2.15 µM)
99 | CC(C)CC(=O)c1c[nH]c(C(=O)NCc2cccnc2)c1 | 30.9 (≈ 108 µM)
100 | Cc1nc(SCC(=O)Nc2cccc(S(=O)(=O)N3CCOCC3)c2)nc(C)c1C | 29.5 (≈ 67.6 µM)

Row | Compound | solubility kinetic [µg/mL]
101 | NC(=O)c1ccc(NC(=O)COC(=O)c2ccc3ccccc3n2)cc1 | 18.8 (≈ 53.8 µM)
102 | Cc1ccccc1OCC(=O)Nc1ccncc1 | > 36.3
103 | O=C(O)c1ccccc1NCCO | 24 (≈ 132 µM)
104 | O=C(/C=C/c1ccccn1)c1cc(Cl)cc(Cl)c1O | 5.9 (≈ 20.1 µM)
105 | Cc1oc2ccccc2c1CC(=O)NCCCN(C)C | > 41.2
106 | CC(CCc1ccccc1)NC(=O)CN1CCSc2ccccc21 (stereo unspecified) | 20.1 (≈ 59 µM)
107 | Cc1c(C)n(-c2ccc(Cl)cc2)c2ncnc(N)c12 | 7.4 (≈ 27.1 µM)
108 | O=C(O)C(=O)O.O=S(=O)(c1cccc(C(F)(F)F)c1)N1CCN(CC(O)COCc2ccccc2)CC1 (stereo unspecified) | > 82.3
109 | CN(CC(=O)NCc1cccnc1)S(=O)(=O)c1ccccc1 | > 47.9
110 | CCOC(=O)C1CCCN(C(=O)c2[nH]c3ccc(OC)cc3c2C)C1 (stereo unspecified) | > 51.7
111 | CCN(CC)Cc1cc(O)c(CN(CC)CC)cc1O | > 42.1
112 | Cc1ccc(OCCNC(=O)CCc2ccccc2)cc1C | 12.9 (≈ 43.4 µM)
113 | COCC(C)NC(C(=O)Nc1cccc(C(C)=O)c1)c1ccccc1 (stereo unspecified) | > 51.1
114 | CCc1ccccc1NC(=O)c1cc(-c2ccc(OC)cc2)on1 | < 0.3
115 | Cc1cccc(-c2cnn(-c3ccccc3)c2N)c1 | > 37.4
116 | CC(=O)CC1(O)C(=O)Nc2ccccc21 (stereo unspecified) | 27.6 (≈ 134 µM)
117 | CC(C)NC(=O)COC(=O)c1ccccc1C(=O)c1ccccc1 | > 48.8
118 | O=[N+]([O-])c1ccc(Sc2ccc(F)cc2)nc1 | 0.7 (≈ 2.8 µM)
119 | CCc1cc(SC#N)ccc1N | 20.7 (≈ 116 µM)
120 | CSc1ccccc1NC(=O)Cn1c([N+](=O)[O-])cnc1C | 41.5 (≈ 135 µM)
121 | CC1(C)Cc2nc3scc(NC(=O)c4ccccc4)c3cc2CO1 | 5.9 (≈ 17.4 µM)
